pIC50: −log10 of the molar value. In the oligonucleotide strings, read from the 5' end, every base follows the letter of its sugar. An asterisk marks phosphorothioate; unmarked linkages are phosphodiester. Other units and linkages are bracketed, terminal groups are in braces. A string of capitals states the bases alone. d = 2'-deoxy (DNA); m = 2'-O-methyl; r = 2'-OH (RNA); {P} = phosphate; f = 2'-fluoro
Columns and labels:
[1] = system: primary human blood monocytes (hPBMC); test: IFN-alpha induction in primary human blood monocytes (hPBMC); assay type: cell-based; conditions: for IFN-α Induction: first word of the cell IFN-α/TNF-α Induction (Yes/No); for IFN-alpha induction: human primary blood monocytes
Description: (§1) siRNAs were tested for activation of the immune system in primary human blood monocytes (hPBMC). […] However, chemically modified versions of this sequence (AD-1a2, AD-1a3, AD-1a5, and AD-1a4) as well as AD-2a1 were negative for both IFN-alpha and TNF-alpha induction in these same assays (see Table 5, and FIGS. 13A and 13B). Thus chemical modifications are capable of dampening both IFN-alpha and TNF-alpha responses to siRNA molecules.

[2] = system: primary human blood monocytes (hPBMC); test: TNF-alpha induction in primary human blood monocytes (hPBMC); assay type: cell-based; conditions: for TNF-alpha induction: human primary blood monocytes; for TNF-α Induction: second word of the cell IFN-α/TNF-α Induction (Yes/No)
Description: as §1

PCSK9 mRNA [3] = test: PCSK9 silencing in primary cynomolgus monkey hepatocytes (dilution series from 30 nM, PCSK9/GAPDH mRNA); assay type: cell-based; conditions: for pIC50: PCSK9 silencing in primary cynomolgus monkey hepatocytes, approximate IC50, read-out: Primary Cynomolgus Monkey Hepatocytes ~IC50; for IC50: primary cynomolgus monkey hepatocytes, read-out: IC50 in Cynomolgous monkey Hepatocyte [nM]s
Description: Primary cynomolgus monkey hepatocytes (cryopreserved) were obtained from In vitro Technologies, Inc. (Baltimore, Md., USA, cat No M00305) and cultured in InVitroGRO CP Medium (cat No Z99029) at 37° C. in an atmosphere with 5% CO2 in a humidified incubator.
For transfection with siRNA, primary cynomolgus monkey cells were seeded on Collagen coated plates (Fisher Scientific, cat. No. 08-774-5) at a density of 3.5×10^4 cells/well in 96-well plates and transfected directly. Transfection of siRNA (eight 2-fold dilution series starting from 30 nM) in duplicates was carried out with lipofectamine 2000 (Invitrogen GmbH, Karlsruhe, Germany, cat. No. 11668-019) as described by the manufacturer.
16 hours after transfection medium was changed to fresh InVitroGRO CP Medium with Torpedo Antibiotic Mix (In vitro Technologies, Inc, cat. No Z99000) added.
24 hours after medium change primary cynomolgus monkey cells were lysed and PCSK9 mRNA levels were quantified with the Quantigene Explore Kit (Genosprectra, Dumbarton Circle Fremont, USA, cat. No. QG-000-02) according to the protocol. PCSK9 mRNA levels were normalized to GAPDH mRNA. Normalized PCSK9/GAPDH ratios were then compared to PCSK9/GAPDH ratio of lipofectamine 2000 only control.

PCSK9 = test: Total serum cholesterol in rats after LNP01 formulated PCSK9 siRNA (duration of action); assay type: in vivo, rat; conditions: versus PBS or control siRNA
Description: Rats were treated via tail vein injection with 5 mg/kg of LNP01-10792 (Formulated ALDP-10792). Blood was drawn at the indicated time points (see Table 3) and the amount of total cholesterol compared to PBS treated animals was measured by standard means. Total cholesterol levels decreased at day two ˜60% and returned to baseline by day 28.
To test if acute silencing of the PCSK9 transcript by a PCSK9 siRNA (and subsequent PCSK9 protein down-regulation), would result in acutely lower total cholesterol levels, siRNA molecule AD-1a2 (AD-10792) was formulated in an LNP01 lipidoid formulation. Liposomal formulated siRNA duplex AD-1a2 (LNP01-1a2) was injected via tail vein in low volumes (˜0.2 ml for mouse and ˜1.0 ml for rats) at different doses into C57/BL6 mice or Sprague Dawley rats.
Down-modulation of total cholesterol in rats has been historically difficult as cholesterol levels remain unchanged even at high doses of HMG-CoA reductase inhibitors. […] Rats were dosed with a single injection of LNP01-a2 via tail vein at 1, 2.5 and 5 mg/kg. Liver tissue and blood were harvested 72 hours post-injection. […] The mRNA silencing was associate with an acute ˜50-60% decrease of serum total cholesterol (FIGS. 10A and 10B) lasting 10 days, with a gradual return to pre-dose levels by ˜3 weeks (FIG. 10B).
(§2) Phosphorothioate modifications at the 3′ ends of both sense and antisense strands of a dsRNA can protect against exonucleases. 2′OMe and 2′F modifications in both the sense and antisense strands of a dsRNA can protect against endonucleases. AD-1a2 (see Table 5b) contains 2′OMe modifications on both the sense and antisense strands. Experiments were performed to determine if the inherent stability (as measured by siRNA stability in human serum) or the degree or type of chemical modification (2′OMe versus 2′F or a mixture) was related to either the observed rat efficacy or the duration of silencing effects. Stability of siRNAs with the same AD-1a2 core sequence, but containing different chemical modifications were created and tested for activity in vitro in primary Cyno monkey hepatocytes. A series of these molecules that maintained similar activity as measured by in vitro IC50 values for PCSK9 silencing (Table 5b), were then tested for their stability against exo and endonuclease cleavage in human serum. Each duplex was incubated in human serum at 37° C. (a time course), and subjected to HPLC analysis. […] Sequences AD-1a3, AD-1a5, and AD-1a4, which were more heavily modified (see chemical modifications in Table 5) all had T ½'s greater than 24 hours. […] Blood was collected from animals at various days post-dose, and total cholesterol concentrations were measured. […]

PCSK9 mRNA [4] = test: In vitro screening of modified dsRNAs targeted to PCSK9 (Table 2b; cell type not given); assay type: cell-based; conditions: 30 nM siRNA
How it was run: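 Activity is reported as percent PCSK9 transcript remaining versus an unrelated control duplex, from eight datapoints per siRNA. Knockdown was read by Quantigene branched-DNA assay with GAPDH normalization 24 h after lipofectamine 2000 transfection of 30 nM siRNA.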

PCSK9 mRNA [5] = test: PCSK9 siRNA screening in HepG2 cells (lipofectamine 2000 transfection, PCSK9 mRNA by Quantigene, normalized to GAP-DH); assay type: cell-based, human; conditions: for Mean percent remaining mRNA transcript at siRNA concentration/in cell type 3 nM/HepG2: 3 nM siRNA; for Mean percent remaining mRNA transcript at siRNA concentration/in cell type 30 nM/HepG2: 30 nM siRNA
How it was run: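 PCSK9 silencing was assessed in HepG2 cells by lipofectamine 2000 siRNA transfection in 96-well plates. Twenty-four hours later, lysates were analyzed with the Quantigene Explore Kit, with PCSK9 signal normalized to GAP-DH. Eight datapoints were collected per siRNA, and remaining transcript was expressed as a percentage of cells treated with an unrelated control siRNA duplex.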

[6] = IFN-alpha activation in mice, siRNA formulated into liposomes; assay type: in vivo, mouse
[7] = siRNA stability in human serum at 37° C., HPLC analysis; assay type: in vitro ADME
Description: as §2

Substance	IFN-α Induction [1]	IFN-alpha induction [1]	TNF-alpha induction [2]	TNF-α Induction [2]	pIC50 (PCSK9 mRNA [3])	decrease of total cholesterol day 2 post-dose (PCSK9) [%]	IFN-alpha induction ([1]; listed as AD-1a1)	TNF-alpha induction ([2]; listed as AD-1a1)	Remaining mRNA in % of controls at siRNA conc. of 30 nM (PCSK9 mRNA [4]) [%]	pIC50 (PCSK9 mRNA [5])	Mean percent remaining mRNA transcript at siRNA concentration/in cell type 3 nM/HepG2 (PCSK9 mRNA [5]) [%]	Mean percent remaining mRNA transcript at siRNA concentration/in cell type 30 nM/HepG2 (PCSK9 mRNA [5]) [%]	activity in vitro in primary monkey hepatocytes (PCSK9 mRNA [3])	IFN-alpha activation in mice [6]	IC50 (PCSK9 mRNA [3]) [nM]	T ½ in pooled human serum [7] [h]	IFN-alpha induction ([1]; listed as AD-1a2)	TNF-alpha induction ([2]; listed as AD-1a2)
AD-1a3: modified dsRNA, AD-1a2 core sequence, Alt 2′ F, 2′ OMe both strands; SEQ ID NO:1509/1510 (chain 1 GCCUGGAGUUUAUUCGGAATT; chain 2 {P}-mUfUmCfCmGfAmAfUmAfAmAfCmUfCmCfAmGfGmCdT*dT; chain 1: sugars from the 5' end fmfmfmfmfmfmfmfmfmfdd, backbone not given here)	No/No	negative	negative	No/No	9.70 to 10.15	~60												
AD-9314: unmodified parental PCSK9 siRNA, SEQ ID NO:1503/1504 (chain 1 rGrCrCrUrGrGrArGrUrUrUrArUrUrCrGrGrArAdT*dT; chain 2 rUrUrCrCrGrArArUrArArArCrUrCrCrArGrGrCdT*dT)	Yes/Yes	induced IFN-alpha	induced TNF-alpha	Yes/Yes	9.70 to 10.15		induce both IFN-alpha and TNF-alpha	induce both IFN-alpha and TNF-alpha	9	10.40	22	11	active in vitro					
AD-1a4: modified dsRNA, sense 2′ OMe, antisense 2′ F all Py, 5′ Phosphate; SEQ ID NO:1511/1512 (sense rGmCmCmUrGrGrArGmUmUmUrAmUmUmCrGrGrArAdT*dT; antisense {P}-fUfUfCfCrGrArAfUrArArAfCfUfCfCrArGrGfCdT*dT)	No/No	negative	negative	No/No	9.70 to 10.15	~60												
AD-1a5: modified dsRNA, sense 2′ F, antisense 2′ F all Py, 5′ Phosphate; SEQ ID NO:1513/1514 (sense GCCUGGAGUUUAUUCGGAATT; antisense {P}-fUfUfCfCrGrArAfUrArArAfCfUfCfCrArGrGfCdT*dT; sense: chemistry not given here; sense strand 2'-F modified, exact pattern not fully given)	No/No	negative	negative	No/No	9.70 to 10.15	~60												
AD-9680: dsRNA targeting the PCSK9 gene at 3530-3548; sense SEQ ID NO:1227, antisense SEQ ID NO:1228 (sense mUmUmCmUrArGrAmCmCmUrGmUmUmUmUrGmCmUmUdT*dT; antisense rArArGmCrArArArAmCrArGrGrUrCmUrArGrArAdT*dT)	No/No	negative	negative	No/No	9.70 to 10.15					10.00	22	12	highly active	neither AD-1a2, nor AD-2a1 activated IFN-alpha	0.1			
AD-10792: 2′OMe modified dsRNA targeting PCSK9 at 1091-1109, SEQ ID NO:1305/1306 (chain 1 rGmCmCmUrGrGrArGmUmUmUrAmUmUmCrGrGrArAdT*dT; chain 2 rUrUrCrCrGrArAmUrArArArCrUrCmCrArGrGrCdT*dT)	No/No			No/No	9.70 to 10.15	~60			15	10.00			active in vitro	neither AD-1a2, nor AD-2a1 activated IFN-alpha	0.1	~7	negative	negative

From patent US20120016009A1, “Optimized Methods For Delivery Of DSRNA Targeting The PCSK9 Gene” (priority 2008, published 2012)
